Columns and labels:
Format in all cases: cell-based
[1] = tested on: Escherichia coli (E. coli, K12); experiment: Bacterial growth curves (OD600) after exposure in pH buffers
Procedure: (§1) Azo-QPS-C16 was effective on both […] bacteria. The ability of bacteria to proliferate after exposure to Azo-QPS-C16 was characterized by adding growth medium and measuring the optical density (OD) at 600 nm every 15 minutes in pH 4.1, 5.8, and 7.9 buffer. […] However, exposure at pH 7.9 required a much higher concentration (40 μg/mL) to inhibit cell growth. […] The pH dependence of bactericidal activity of Azo-QPS-C16 in terms of minimum bactericidal concentration (MBC) was evaluated by inoculating cultures onto a Lysogeny Broth (LB) agar plate after treating the cells with a twofold dilution series of Azo-QPS-C16.
(§2) Bacterial strains and growth conditions. […]
(§3) In a 96-well plate, 2 μL of Azo-QPS-C16 at various concentrations in dimethyl sulfoxide (DMSO) were added to 98 μL of bacteria suspension per well for a final concentration ranging from a 2-fold dilution series between 40 to 1.25 μg/mL of Azo-QPS-C16. […] E. coli were cultured at 37° C., and the OD600 of each well was measured by a Tecan Spark microplate reader (Männedorf, Switzerland) every 15 minutes for up to 19 hours, with 30 seconds shaking before each measurement. S. mutans were grown at 37° C. with 5% CO2, and the OD600 of each well was measured periodically using a Molecular Devices (Sunnyvale, Calif.) SpectraMax M5 microplate reader. […]

[2] = tested on: Escherichia coli (E. coli, K12); experiment: Minimum bactericidal concentration (MBC) determination by agar colony formation; settings: MBC increased as pH increased
Procedure: as §1, §2, §3

[3] = tested on: Streptococcus mutans (S. mutans, UA159); experiment: as above; settings: more effective in acidic conditions
Source text: The inventor observed similar pH-sensitive antibacterial activity of Azo-QPS-C16 towards the Gram-positive, lactic acid producing, cariogenic bacteria S. mutans.
Bacterial strains and growth conditions. Streptococcus mutans (S. mutans, UA159) and Escherichia coli (E. coli, K12) were purchased from ATCC (American Type Culture Collection, Manassas, Va., USA). Todd Hewitt Broth (THB), and Lysogeny Broth (LB) powder and agar were purchased from BD (Becton, Dickinson and Company, Franklin Lakes, N.J., USA). Planktonic cultures were inoculated from 25% (by volume) glycerol frozen stocks stored at −80° C. E. coli cultures were grown in LB at 37° C. in a shaker-incubator. S. mutans cultures were grown in THB at 37° C. with 5% (by volume) CO2 overnight.
as §3

SMILES: C=C(C)C(=O)Oc1ccc(/N=N/c2cc[n+](CCCCCCCCCCCCCCCC)cc2)cc1.[Br-] [Azo-QPS-C16, (E)-1-hexadecyl-4-((4-(methacryloyloxy)phenyl)diazenyl)-pyridinium bromide]
- concentration that fully inhibited E. coli growth up to 19 hours ([1]; exposure at pH 4.1, 45 min treatment, OD 600 nm): 2.5 µg/mL
- concentration required to inhibit cell growth ([1]; exposure at pH 7.9, E. coli): 40 µg/mL
- difference in MBC between pH 4.1 and pH 7.9 [2]: 16 fold
- MBC-based effectiveness in acidic versus mildly basic conditions [3]: 8 fold

From patent US10836726B2, “AZO-quaternary pyridinium salts with acid-enhanced antibacterial efficacy, methods of use, methods of synthesis, and uses thereof” (priority 2016, dated 2020)
